Literature values, collected in US5840712A, “Water soluble vitamin B12 receptor modulating agents and methods related thereto” (Receptagen Corporation, priority 1995, dated 1998).

Molecular target: avidin (Gallus gallus, UniProt P02701)
Sequence (P02701 25-152): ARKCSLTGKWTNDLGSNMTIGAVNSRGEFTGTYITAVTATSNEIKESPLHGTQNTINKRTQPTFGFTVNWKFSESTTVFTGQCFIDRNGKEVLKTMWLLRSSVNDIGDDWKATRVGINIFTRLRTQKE

O=C(O)CCCC[C@@H]1SC[C@@H]2NC(=O)N[C@@H]21 [biotin]
specific binding affinity of biotin for avidin (Ka): 10^15
